Species: Rattus norvegicus
Assay: Open TG-GATES - Regimen: Daily Repeat
Assay type: toxicity, organism-based, Sprague-Dawley
Design: regimen Daily Repeat, gender Male, age 6 weeks
Details: in vivo, po, route gavage; for APTT / Bas / Eos / Fbg / Hb / Ht / Lym / MCH / MCHC / MCV / Mono / Neu / PT / Plat / RBC / Ret / WBC: tissue Blood; for KIDNEY_L / KIDNEY_R / KIDNEY_TOTAL: tissue Kidney; for LIVER: tissue Liver; for A/G / ALP / ALT / AST / BUN / CRE / Ca / Cl / DBIL / GLC / IP / K / LDH / Na / PL / RALB / TBIL / TC / TG / TP / gamma-GTP: tissue Plasma
[1] = 0 mg/kg, 72 h, dose level Control, time 3 day
[2] = 0 mg/kg, […], dose level Control, time 7 day
[3] = 0 mg/kg, […], dose level Control, time 14 day
[4] = 0 mg/kg, […], dose level Control, time 28 day
[5] = 30 mg/kg, 72 h, dose level Low, time 3 day
[6] = 30 mg/kg, […], dose level Low, time 7 day
[7] = 30 mg/kg, […], dose level Low, time 14 day
[8] = 30 mg/kg, […], dose level Low, time 28 day

CC[C@H]1[C@@H]2C[C@H]3[C@@H]4N(C)c5ccccc5[C@]45C[C@@H]([C@@H]2[C@H]5O)N3[C@@H]1O [AJMALINE]
TERMINAL_BW [1]: 211 g
APTT [1]: 16.4 s
Bas [1]: 0%
Eos [1]: 1%
Fbg [1]: 218.4 mg/dL
Hb [1]: 13 g/dL
Ht [1]: 40.1%
Lym [1]: 75.8%
MCH [1]: 21.1 pg
MCHC [1]: 32.4%
MCV [1]: 65 fL
Mono [1]: 10.4%
Neu [1]: 13%
PT [1]: 11.6 s
Plat [1]: 115.1 x10_4/uL
RBC [1]: 617.4 x10_4/ul
Ret [1]: 8%
WBC [1]: 104.3 x10_2/uL
KIDNEY_L [1]: 0.9 g
KIDNEY_R [1]: 1 g
KIDNEY_TOTAL [1]: 1.9 g
LIVER [1]: 10.3 g
A/G [1]: 2.2
ALP [1]: 1003.6 IU/L
ALT [1]: 37 IU/L
AST [1]: 63.8 IU/L
BUN [1]: 19.4 mg/dL
CRE [1]: 0.5 mg/dL
Ca [1]: 11.1 mg/dL
Cl [1]: 102.8 meq/L
DBIL [1]: 0.008 mg/dL
GLC [1]: 199.8 mg/dL
IP [1]: 7.4 mg/dL
K [1]: 4.5 meq/L
LDH [1]: 87.6 IU/L
Na [1]: 140 meq/L
PL [1]: 152.6 mg/dL
RALB [1]: 3.9 g/dL
TBIL [1]: 0.3 mg/dL
TC [1]: 79.4 mg/dL
TG [1]: 101.4 mg/dL
TP [1]: 5.8 g/dL
gamma-GTP [1]: 1.8 IU/L
TERMINAL_BW [2]: 249.2 g
TERMINAL_BW [3]: 302.2 g
TERMINAL_BW [4]: 382 g
APTT [2]: 16.1 s
Bas [2]: 0%
Eos [2]: 1%
Fbg [2]: 220.4 mg/dL
Hb [2]: 13 g/dL
Ht [2]: 39.8%
Lym [2]: 82.2%
MCH [2]: 20.6 pg
MCHC [2]: 32.6%
MCV [2]: 63.3 fL
Mono [2]: 5%
Neu [2]: 12.2%
PT [2]: 11.2 s
Plat [2]: 125.7 x10_4/uL
RBC [2]: 629.6 x10_4/ul
Ret [2]: 7%
WBC [2]: 107.8 x10_2/uL
APTT [3]: 17.8 s
Bas [3]: 0%
Eos [3]: 0.8%
Fbg [3]: 211.6 mg/dL
Hb [3]: 13.6 g/dL
Ht [3]: 41.6%
Lym [3]: 84.6%
MCH [3]: 20.6 pg
MCHC [3]: 32.9%
MCV [3]: 62.5 fL
Mono [3]: 4%
Neu [3]: 11%
PT [3]: 11.4 s
Plat [3]: 121.9 x10_4/uL
RBC [3]: 664.2 x10_4/ul
Ret [3]: 3.8%
WBC [3]: 121.7 x10_2/uL
APTT [4]: 17.6 s
Bas [4]: 0%
Eos [4]: 1.2%
Fbg [4]: 226.2 mg/dL
Hb [4]: 15.2 g/dL
Ht [4]: 45.3%
Lym [4]: 83.8%
MCH [4]: 19.1 pg
MCHC [4]: 33.5%
MCV [4]: 57 fL
Mono [4]: 5.6%
Neu [4]: 9.6%
PT [4]: 11.4 s
Plat [4]: 125.9 x10_4/uL
RBC [4]: 794.6 x10_4/ul
Ret [4]: 2%
WBC [4]: 105.2 x10_2/uL
KIDNEY_L [2]: 1 g
KIDNEY_R [2]: 1.1 g
KIDNEY_TOTAL [2]: 2.1 g
KIDNEY_L [3]: 1.2 g
KIDNEY_R [3]: 1.3 g
KIDNEY_TOTAL [3]: 2.5 g
KIDNEY_L [4]: 1.4 g
KIDNEY_R [4]: 1.4 g
KIDNEY_TOTAL [4]: 2.9 g
LIVER [2]: 12.3 g
LIVER [3]: 13.9 g
LIVER [4]: 16.5 g
A/G [2]: 1.9
ALP [2]: 1031.8 IU/L
ALT [2]: 37.4 IU/L
AST [2]: 67 IU/L
BUN [2]: 18.4 mg/dL
CRE [2]: 0.5 mg/dL
Ca [2]: 11.1 mg/dL
Cl [2]: 104.2 meq/L
DBIL [2]: 0.004 mg/dL
GLC [2]: 206.8 mg/dL
IP [2]: 7.9 mg/dL
K [2]: 4.4 meq/L
LDH [2]: 80.4 IU/L
Na [2]: 142.4 meq/L
PL [2]: 154 mg/dL
RALB [2]: 3.7 g/dL
TBIL [2]: 0.3 mg/dL
TC [2]: 79.8 mg/dL
TG [2]: 126.4 mg/dL
TP [2]: 5.7 g/dL
gamma-GTP [2]: 1.2 IU/L
A/G [3]: 1.9
ALP [3]: 756.6 IU/L
ALT [3]: 31 IU/L
AST [3]: 61.4 IU/L
BUN [3]: 20.6 mg/dL
CRE [3]: 0.5 mg/dL
Ca [3]: 10.9 mg/dL
Cl [3]: 104.2 meq/L
DBIL [3]: 0.008 mg/dL
GLC [3]: 206 mg/dL
IP [3]: 7.2 mg/dL
K [3]: 4.9 meq/L
LDH [3]: 90.6 IU/L
Na [3]: 141.6 meq/L
PL [3]: 148.4 mg/dL
RALB [3]: 3.8 g/dL
TBIL [3]: 0.3 mg/dL
TC [3]: 69.4 mg/dL
TG [3]: 126 mg/dL
TP [3]: 5.8 g/dL
gamma-GTP [3]: 1.4 IU/L
A/G [4]: 1.9
ALP [4]: 557 IU/L
ALT [4]: 29.8 IU/L
AST [4]: 57.6 IU/L
BUN [4]: 19.4 mg/dL
CRE [4]: 0.6 mg/dL
Ca [4]: 10.3 mg/dL
Cl [4]: 105.2 meq/L
DBIL [4]: 0.016 mg/dL
GLC [4]: 195 mg/dL
IP [4]: 6.3 mg/dL
K [4]: 4.7 meq/L
LDH [4]: 78.2 IU/L
Na [4]: 142.6 meq/L
PL [4]: 139 mg/dL
RALB [4]: 4 g/dL
TBIL [4]: 0.3 mg/dL
TC [4]: 62.6 mg/dL
TG [4]: 136.4 mg/dL
TP [4]: 6.2 g/dL
gamma-GTP [4]: 1.6 IU/L
TERMINAL_BW [5]: 214.3 g
APTT [5]: 16.2 s
Bas [5]: 0%
Eos [5]: 1.2%
Fbg [5]: 210 mg/dL
Hb [5]: 13 g/dL
Ht [5]: 39.3%
Lym [5]: 78%
MCH [5]: 21.7 pg
MCHC [5]: 33%
MCV [5]: 65.7 fL
Mono [5]: 8.4%
Neu [5]: 12.8%
PT [5]: 11.7 s
Plat [5]: 118 x10_4/uL
RBC [5]: 599 x10_4/ul
Ret [5]: 8.9%
WBC [5]: 93 x10_2/uL
KIDNEY_L [5]: 0.9 g
KIDNEY_R [5]: 0.9 g
KIDNEY_TOTAL [5]: 1.8 g
LIVER [5]: 10.4 g
A/G [5]: 2.1
ALP [5]: 904.4 IU/L
ALT [5]: 36.2 IU/L
AST [5]: 66.6 IU/L
BUN [5]: 18.2 mg/dL
CRE [5]: 0.5 mg/dL
Ca [5]: 11.1 mg/dL
Cl [5]: 102.6 meq/L
DBIL [5]: 0.024 mg/dL
GLC [5]: 198.2 mg/dL
IP [5]: 7.2 mg/dL
K [5]: 4.3 meq/L
LDH [5]: 113 IU/L
Na [5]: 139.6 meq/L
PL [5]: 141.4 mg/dL
RALB [5]: 3.8 g/dL
TBIL [5]: 0.3 mg/dL
TC [5]: 78.2 mg/dL
TG [5]: 85 mg/dL
TP [5]: 5.6 g/dL
gamma-GTP [5]: 0.8 IU/L
TERMINAL_BW [6]: 248 g
TERMINAL_BW [7]: 297.8 g
TERMINAL_BW [8]: 375.4 g
APTT [6]: 17 s
Bas [6]: 0%
Eos [6]: 1.2%
Fbg [6]: 229.4 mg/dL
Hb [6]: 13 g/dL
Ht [6]: 39.1%
Lym [6]: 75.4%
MCH [6]: 21.4 pg
MCHC [6]: 33.3%
MCV [6]: 64.2 fL
Mono [6]: 10.2%
Neu [6]: 13.6%
PT [6]: 11.4 s
Plat [6]: 118.3 x10_4/uL
RBC [6]: 609.8 x10_4/ul
Ret [6]: 7%
WBC [6]: 106.1 x10_2/uL
APTT [7]: 16.7 s
Bas [7]: 0%
Eos [7]: 1%
Fbg [7]: 224 mg/dL
Hb [7]: 13.9 g/dL
Ht [7]: 41.9%
Lym [7]: 85%
MCH [7]: 20.3 pg
MCHC [7]: 33.1%
MCV [7]: 61.4 fL
Mono [7]: 4.2%
Neu [7]: 10%
PT [7]: 11.1 s
Plat [7]: 121.6 x10_4/uL
RBC [7]: 683.4 x10_4/ul
Ret [7]: 4.3%
WBC [7]: 138.2 x10_2/uL
APTT [8]: 17.2 s
Bas [8]: 0%
Eos [8]: 1%
Fbg [8]: 221.6 mg/dL
Hb [8]: 15.4 g/dL
Ht [8]: 45.5%
Lym [8]: 83%
MCH [8]: 20.4 pg
MCHC [8]: 33.8%
MCV [8]: 60.3 fL
Mono [8]: 4.6%
Neu [8]: 11.4%
PT [8]: 11.2 s
Plat [8]: 96.6 x10_4/uL
RBC [8]: 754.8 x10_4/ul
Ret [8]: 2.1%
WBC [8]: 110.2 x10_2/uL
KIDNEY_L [6]: 1 g
KIDNEY_R [6]: 1 g
KIDNEY_TOTAL [6]: 2 g
KIDNEY_L [7]: 1.2 g
KIDNEY_R [7]: 1.2 g
KIDNEY_TOTAL [7]: 2.3 g
KIDNEY_L [8]: 1.3 g
KIDNEY_R [8]: 1.3 g
KIDNEY_TOTAL [8]: 2.7 g
LIVER [6]: 12 g
LIVER [7]: 13.8 g
LIVER [8]: 16.1 g
A/G [6]: 1.8
ALP [6]: 975.8 IU/L
ALT [6]: 34.8 IU/L
AST [6]: 65.6 IU/L
BUN [6]: 20.2 mg/dL
CRE [6]: 0.5 mg/dL
Ca [6]: 11.4 mg/dL
Cl [6]: 104.4 meq/L
DBIL [6]: 0.012 mg/dL
GLC [6]: 196.8 mg/dL
IP [6]: 7.3 mg/dL
K [6]: 4.7 meq/L
LDH [6]: 119.6 IU/L
Na [6]: 141.4 meq/L
PL [6]: 160 mg/dL
RALB [6]: 3.8 g/dL
TBIL [6]: 0.3 mg/dL
TC [6]: 82 mg/dL
TG [6]: 123.2 mg/dL
TP [6]: 5.9 g/dL
gamma-GTP [6]: 1.4 IU/L
A/G [7]: 2.2
ALP [7]: 942.2 IU/L
ALT [7]: 32.4 IU/L
AST [7]: 61 IU/L
BUN [7]: 20 mg/dL
CRE [7]: 0.5 mg/dL
Ca [7]: 10.9 mg/dL
Cl [7]: 105.2 meq/L
DBIL [7]: 0.01 mg/dL
GLC [7]: 201 mg/dL
IP [7]: 7.1 mg/dL
K [7]: 4.5 meq/L
LDH [7]: 104.8 IU/L
Na [7]: 141.4 meq/L
PL [7]: 157.6 mg/dL
RALB [7]: 3.9 g/dL
TBIL [7]: 0.3 mg/dL
TC [7]: 80 mg/dL
TG [7]: 106.8 mg/dL
TP [7]: 5.8 g/dL
gamma-GTP [7]: 1.8 IU/L
A/G [8]: 1.8
ALP [8]: 659.2 IU/L
ALT [8]: 30.8 IU/L
AST [8]: 62.8 IU/L
BUN [8]: 19.6 mg/dL
CRE [8]: 0.6 mg/dL
Ca [8]: 10.5 mg/dL
Cl [8]: 105.2 meq/L
DBIL [8]: 0.008 mg/dL
GLC [8]: 198.2 mg/dL
IP [8]: 6.2 mg/dL
K [8]: 4.5 meq/L
LDH [8]: 109.6 IU/L
Na [8]: 142.4 meq/L
PL [8]: 158.2 mg/dL
RALB [8]: 3.9 g/dL
TBIL [8]: 0.3 mg/dL
TC [8]: 71.8 mg/dL
TG [8]: 190.2 mg/dL
TP [8]: 6.1 g/dL
gamma-GTP [8]: 1 IU/L
